The subject of the experiment is T1, Pseudomonas fluorescens lipase (PFL).
T1 construct: commercial lipase powder (Amano Enzyme Ltd., Nagoya, Japan), used without further treatment; free enzyme
The experiment can be described thus: colorimetric p-nitrophenol release at […] nm; initial rates, linear regression (Lineweaver-Burk). The format is biochemical. The note with it: free enzyme; standard assay phosphate buffer pH 7.5, 40 °C, with Triton and acetone.

For `CCCC(=O)Oc1ccc([N+](=O)[O-])cc1` [p-nitrophenol butyrate], the Michaelis-Menten constant (Km) stood at 760 µM.

In general, Km refers to the concentration of substrate that gives half-maximal velocity.

The record behind these values is article PMC11207022, “Enhanced Enzymatic Performance of Immobilized Pseudomonas fluorescens Lipase on ZIF-8@ZIF-67 and Its Application to the Synthesis of Neryl Acetate with Transesterification Reaction” (Molecules, 2024).
